Laboratory results as given in publication PMC6272576, “PLS-Prediction and Confirmation of Hydrojuglone Glucoside as the Antitrypanosomal Constituent of Juglans Spp” (Molecules, 2015).
Read-outs that look alike come from different tables or passages of the source.

How the values were obtained:
Format in all cases: cell-based
[1] = tested on: L6 rat skeletal myoblasts; test: cytotoxicity against mammalian cells; settings: read-out: IC50 L6
[2] = tested on: Trypanosoma cruzi strain Tulahuen C2C4 (intracellular amastigotes in L6 cells); test: in vitro growth inhibition of T. cruzi; settings: for SI TC: ratio of cytotoxic (L6) over antiparasitic IC50
[3] = tested on: Leishmania donovani strain MHOM/ET/67/L82 (axenic amastigotes); test: in vitro growth inhibition of L. donovani; settings: for IC50: read-out: IC50 LD
[4] = tested on: Trypanosoma brucei rhodesiense strain STIB 900 (bloodstream trypomastigotes); test: microbe, parasite or virus in culture; settings: for IC50: read-out: IC50 TB
[5] = Rattus norvegicus, Myoblast, cytotoxicity, pure compound
[6] = Trypanosoma cruzi, TULAHUEN, L6, pure compound, read-out: IC50 TC
[7] = Leishmania donovani, pure compound
[8] = ratio of cytotoxic (L6) over antiparasitic IC50
[9] = Trypanosoma brucei, pure compound
[10] = pure compound, read-out: IC50 TC

SMILES	IC50 [1, 5] [µM]	IC50 [2, 6] [µM]	SI TC [2]	IC50 [3, 7] [µM]	SI LD [3, 8]	IC50 [4, 9] [µM]	SI TB [4, 8]	also measured
O=C1C=CC(=O)c2ccccc21 [1,4-Naphthoquinone]	6.39	9.24	0.7	2.38	2.7	0.58	11.1	
O=C1C(O)=C(C2=C(O)C(=O)c3ccccc3C2=O)C(=O)c2ccccc21 [2,2′-bis-(3-Hydroxy-1,4-naphthoquinone)]			0.3		8.4		0.9	IC50 ([1]; cytotoxicity, pure compound): 61.6 µM; IC50 [2, 10]: 237 µM; IC50 ([3]; pure compound): 7.34 µM; IC50 ([4]; pure compound): 68.8 µM
OC[C@H]1O[C@@H](Oc2ccc(O)cc2)[C@H](O)[C@@H](O)[C@@H]1O [Arbutin (1,4-benzoquinone glucoside), Arbutin]	> 367	244	>1.5	> 367		236	>1.5	
O=C(Cn1ccnc1[N+](=O)[O-])NCc1ccccc1 [Benznidazole]		2.33						
OC[C@H]1O[C@@H](Oc2ccc(O)c3cccc(O)c23)[C@H](O)[C@@H](O)[C@@H]1O [Compound 1, 4-O-β-D-Glucopyranosyl-1,4,5-trihydroxynaphthalene]	122	169	0.7	16.7	7.3	6.1		IC50 ([1]; cytotoxicity, pure compound, listed as Hydrojuglone glucoside (1)): 122 µM; IC50 ([3]; pure compound, listed as Hydrojuglone glucoside (1)): 16.6 µM; SI LD ([3]; ratio of cytotoxic (L6) over antiparasitic IC50, listed as Hydrojuglone glucoside (1)): 7.4; SI TB [4]: 20.0; IC50 ([4]; Trypanosoma brucei): 6.12 µM
O=C1C=CC(=O)c2c(O)cccc21 [Juglone]	21	> 100						SI LD [3]: 10.4; IC50 ([3]; Leishmania donovani): 2.02 µM; SI TB [4]: 13.0; IC50 ([4]; Trypanosoma brucei): 1.62 µM
CC(C)=CCC1=C(O)C(=O)c2ccccc2C1=O [Lapachol]	26.6	17.6	1.5	3.33	8.0	16.4	1.6	
O=C1C=C(O)C(=O)c2ccccc21 [Lawson]			0.6		10.3		0.2	IC50 ([1]; cytotoxicity, pure compound): 20.6 µM; IC50 [2, 10]: 37.4 µM; IC50 ([3]; pure compound): 1.99 µM; IC50 ([4]; pure compound): 101 µM
Nc1nc(N)nc(Nc2ccc([As]3SCC(CO)S3)cc2)n1 (stereo not drawn) [Melarsoprol]						0.005		
CCCCCCCCCCCCCCCCOP(=O)([O-])OCC[N+](C)(C)C [Miltefosine]				0.18				
CC1=CC(=O)c2c(O)cccc2C1=O [Plumbagin]	2.87	3.59	0.8	0.88	3.3	0.49	5.9	
COc1cc([C@@H]2c3cc4c(cc3[C@H](O)[C@H]3COC(=O)[C@H]23)OCO4)cc(OC)c1OC [Podophyllotoxin]	0.014							
CC(C)=CC[C@@H](O)C1=CC(=O)c2c(O)ccc(O)c2C1=O [Shikonin]			0.2		0.5	0.03	2.1	IC50 ([1]; Rattus norvegicus, Myoblast): 0.06 µM; IC50 ([2]; Trypanosoma cruzi, TULAHUEN, L6, read-out: IC50 TC): 0.27 µM; IC50 ([3]; Leishmania donovani): 0.12 µM
